Results reported in patent publication US10329304B2, “Compounds and methods for inhibition of hedgehog signaling and phosphodiesterase” (Vanderbilt University, priority 2014, dated 2019).
“And” between values parts separate entries of the source, which are not always exact repeats. Identical values can stand only once. Like-named read-outs stand apart in the source and are kept apart here.

Tests used:
MCF7 = test: Cell viability assay (CellTiter-Blue, 72 hr); type: cell-based; conditions: human cancer cells
Protocol: (§1) Cancer cell lines were seeded in 96 well tissue culture plate at a low density (10,000 cells per well) and treated with varying concentrations of Eggmanone. After 72 hr incubation, CellTiter-Blue Cell Viability Assay (Promega, Madison, Wis.) was then performed according to manufacturer's protocol. Absorbance was then measured in a Modulus Microplate reader (Promega, Madison, Wis.) at 590 nm and compared to cells treated with DMSO.
as §1, with “density” for “density (10,000 cells per well)”, “compounds identified in Table 7.” for “Eggmanone.”

PDE4D = PDE4D (Homo sapiens, UniProt Q08499); test: PDE4 inhibition assay (PDE4D IC50); type: biochemical; conditions: read-out: PDE4D IC50
Protocol: In vitro PDE profiling and dose-response assays were performed by BPS Biosciences (San Diego, Calif.). Kinetic Mechanism of inhibition studies were conducted by Millipore (St. Louis, Mo.). In brief, the PDE assay measures fluorescent polarization of FAM-AMP as FAM-cAMP is converted to FAM-AMP by PDE), the binding agent.
A series of dilutions of the test compound were prepared with 10% DMSO in assay buffer and 5 μl of the dilution was added to a 50 μl reaction so that the final concentration of DMSO is 1% in all of reactions. All of the PDE enzymatic reactions were conducted in duplicate at room temperature for 60 minutes in a 50 μl mixture containing PDE assay buffer (10 mM Tris-HCl, pH7.4, 10 mM MaCl2, 0.05% Tween 20), 100 nM FAM-cAMP, a PDE enzyme and a test compound.
After the enzymatic reaction, 100 μl of a binding solution (1:100 dilution of the binding agent, which contains the nano beads that recognize FAM-AMP, with the binding agent diluent) was added to each reaction and the reaction was performed at room temperature for 60 minutes. Fluorescence intensity was measured at an excitation of 485 nm and an emission of 528 nm using a Tecan Infinite M1000 microplate reader. Assays done by Millipore were conducted similarly with changes noted below:
Hedgehog signaling inhibition and PDE4 inhibition of various compounds disclosed herein was assayed as described herein above.

B16F11 = test: Cell viability assay (CellTiter-Blue, 72 hr); type: cell-based, Mouse; conditions: Mus musculus, B16-F10; Table 10; read-out: CELL KILLING EC50 (μM) Melanoma B16F10
Protocol: as §1
as §1, with “density” for “density (10,000 cells per well)”, “compounds identified in Table 7.” for “Eggmanone.”

[1] = test system: Hedgehog signaling (Gli-Luc reporter); test: Hh Gli-Luciferase reporter assay in Shh-Light2 cells; type: cell-based, mouse; conditions: Mus musculus, Shh Light2; for EC50: Table 9A, read-out: Shh Light2 Luc EC50
Procedure, shortened: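 Steady-Glo luminescence, corrected for cell titer by CellTiter-Glo, was measured after overnight exposure to compound concentrations. Signaling in Gli-Luc Shh-Light2 cells came either from Shh-conditioned medium, 3 μM purmorphamine or 20 nM SAG, or from transfected Gli-2, PDE4D3 or DN-PDE4D3 constructs.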

PC3 = test: Cell viability assay (CellTiter-Blue, 72 hr); type: cell-based; conditions: PC-3; human cancer cells; read-out: CELL KILLING EC50 (μM) Prostate PCx3
Protocol: as §1

HCT116 = test: Cell viability assay (CellTiter-Blue, 72 hr); type: cell-based, Human; conditions: HCT-116; human cancer cells; read-out: CELL KILLING EC50 (μM) Colon HTC116
Protocol: as §1
as §1, with “density” for “density (10,000 cells per well)”, “compounds identified in Table 7.” for “Eggmanone.”

RWGT2 = test: Cell viability assay (CellTiter-Blue, 72 hr); type: cell-based, Human; conditions: human cancer cells; read-out: CELL KILLING EC50 (μM) Lung Squam, NSCLC RWGT2
Protocol: as §1
as §1, with “density” for “density (10,000 cells per well)”, “compounds identified in Table 7.” for “Eggmanone.”

DU145 = test: Cell viability assay (CellTiter-Blue, 72 hr); type: cell-based, Human; conditions: DU-145; human cancer cells; read-out: CELL KILLING EC50 (μM) Prostate DU145
Protocol: as §1
as §1, with “density” for “density (10,000 cells per well)”, “compounds identified in Table 7.” for “Eggmanone.”

RKO = test: Cell viability assay (CellTiter-Blue, 72 hr); type: cell-based, Human; conditions: for EC50: RKO
Protocol: as §1
as §1, with “density” for “density (10,000 cells per well)”, “compounds identified in Table 7.” for “Eggmanone.”

SW480 = test: Cell viability assay (CellTiter-Blue, 72 hr); type: cell-based, Human
Protocol: as §1
as §1, with “density” for “density (10,000 cells per well)”, “compounds identified in Table 7.” for “Eggmanone.”

HeLa = test: Cell viability assay (CellTiter-Blue, 72 hr); type: cell-based, Human; conditions: human cancer cells, read-out: CELL KILLING EC50 (μM) Cervix HeLa
Protocol: as §1
as §1, with “density” for “density (10,000 cells per well)”, “compounds identified in Table 7.” for “Eggmanone.”

DaoY = test: Cell viability assay (CellTiter-Blue, 72 hr); type: cell-based, Human; conditions: Daoy; human cancer cells; read-out: CELL KILLING EC50 (μM) Medulloblastoma DaoY
Protocol: as §1
as §1, with “density” for “density (10,000 cells per well)”, “compounds identified in Table 7.” for “Eggmanone.”

MDA-MB- 231 = test: Cell viability assay (CellTiter-Blue, 72 hr); type: cell-based, Human; conditions: MDA-MB-231; human cancer cells; read-out: CELL KILLING EC50 (μM) Breast MDA-231
Protocol: as §1
as §1, with “density” for “density (10,000 cells per well)”, “compounds identified in Table 7.” for “Eggmanone.”

PDE4D3 = molecular target: T1, PDE4D3 (Homo sapiens, UniProt Q08499); test: In vitro PDE assay; type: biochemical; conditions: Table 9A
T1 construct: purchased BPS Biosciences (San Diego, Calif.); kinetic studies by Millipore (St. Louis, Mo.)
Procedure, shortened: (§2)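 Fluorescence polarization readout: FAM-AMP formed from 100 nM FAM-cAMP binds nano-bead agent (60 min) and is read at ex 485/em 528 nm. Enzyme reactions ran 60 min at room temperature in duplicate, Tris-HCl pH 7.4 buffer with 10 mM MgCl2 and 0.05% Tween 20, compound in 1% final DMSO.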

PDE4D2 = molecular target: T2, PDE4D2 (Homo sapiens, UniProt Q08499); test: In vitro PDE assay; type: biochemical; conditions: Table 9A
T2 construct: purchased BPS Biosciences (San Diego, Calif.)
Procedure, shortened: as §2

H82 = test: Cell killing EC50 in H82 lung cancer cells (Table 10); type: cell-based; conditions: human cancer cells
Protocol: It is anticipated that compounds disclosed herein could serve as an anti-tumor, anti-angiogenic, anti-metastatic, agent in the treatment of cancer. To this end, a series of clinically relevant cancer lines were assayed and the cell-killing EC50s for compounds according to the subject matter disclosed herein are provided in Table 10.

[2] = SW480, human cancer cells, read-out: CELL KILLING EC50 (μM) Colon SW480

Chain of PDE4D (Q08499 1-673 isoform Q08499-2): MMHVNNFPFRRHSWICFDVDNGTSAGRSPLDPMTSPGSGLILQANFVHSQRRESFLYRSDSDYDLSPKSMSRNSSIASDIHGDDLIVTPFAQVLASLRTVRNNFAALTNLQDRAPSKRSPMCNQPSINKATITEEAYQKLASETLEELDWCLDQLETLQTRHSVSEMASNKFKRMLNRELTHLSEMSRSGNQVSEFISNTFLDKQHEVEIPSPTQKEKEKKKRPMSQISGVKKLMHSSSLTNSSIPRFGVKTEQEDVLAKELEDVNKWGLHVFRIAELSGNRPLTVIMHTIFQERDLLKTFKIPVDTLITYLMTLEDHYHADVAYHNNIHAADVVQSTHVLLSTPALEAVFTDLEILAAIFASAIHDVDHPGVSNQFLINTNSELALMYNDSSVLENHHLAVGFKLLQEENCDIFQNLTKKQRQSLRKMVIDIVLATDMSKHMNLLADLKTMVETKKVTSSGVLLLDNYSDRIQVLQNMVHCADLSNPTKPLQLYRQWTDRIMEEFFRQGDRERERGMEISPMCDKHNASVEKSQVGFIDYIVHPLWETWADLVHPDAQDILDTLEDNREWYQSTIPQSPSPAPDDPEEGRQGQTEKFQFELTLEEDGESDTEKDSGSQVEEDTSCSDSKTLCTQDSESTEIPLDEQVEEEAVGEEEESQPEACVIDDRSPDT
T1 sequence (Q08499 1-673 isoform Q08499-2): as above
T2 sequence (Q08499 303-809): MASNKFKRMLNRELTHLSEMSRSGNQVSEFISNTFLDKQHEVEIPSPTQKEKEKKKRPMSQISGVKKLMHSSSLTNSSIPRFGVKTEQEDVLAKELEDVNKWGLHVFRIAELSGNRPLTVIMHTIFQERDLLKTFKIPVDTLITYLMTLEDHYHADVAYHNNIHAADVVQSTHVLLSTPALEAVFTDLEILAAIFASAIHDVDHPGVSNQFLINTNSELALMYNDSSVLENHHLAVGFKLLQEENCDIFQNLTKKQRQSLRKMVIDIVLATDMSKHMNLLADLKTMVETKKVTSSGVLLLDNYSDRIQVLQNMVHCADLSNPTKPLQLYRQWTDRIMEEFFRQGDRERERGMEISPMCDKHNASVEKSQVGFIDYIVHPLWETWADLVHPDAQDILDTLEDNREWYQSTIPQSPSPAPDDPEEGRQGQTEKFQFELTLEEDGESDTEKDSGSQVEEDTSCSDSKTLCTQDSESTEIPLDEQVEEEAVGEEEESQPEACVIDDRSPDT

Structure (SMILES)	CELL KILLING EC50 (μM) Breast MCF7 (MCF7)	IC50 (PDE4D)	EC50 (B16F11) [µM]	IC50 [1] [µM]	EC50 [1] [µM]	EC50 (PC3) [µM]	EC50 (HCT116) [µM]	EC50 (RWGT2) [µM]	EC50 (DU145) [µM]	EC50 (RKO; 72 h, read-out: EC50 (50% reduction of viable cell count at 72 hours), Human Colon Carcinoma) [µM]	EC50 (RKO; human cancer cells, read-out: CELL KILLING EC50 (μM) Colon RKO) [µM]	EC50 (SW480; 72 h, read-out: EC50 (50% reduction of viable cell count at 72 hours), SW480, Human Colorectal Adenocarcinoma) [µM]	EC50 (SW480; [2]) [µM]	EC50 (HeLa) [µM]	EC50 (DaoY) [µM]	EC50 (MDA-MB- 231) [µM]	IC50 (PDE4D3) [µM]	IC50 (PDE4D2) [µM]	CELL KILLING EC50 (μM) Lung H82 (H82)	CELL KILLING EC50 (μM) Colon RKO (RKO; human cancer cells)
C=CCn1c(SCC(=O)N2CCN(C)CC2)nc2sc3c(c2c1=O)CCCC3 [Formula 1KN7]	UnCh	2.1 µM and 2.08 µM	25.8	10	5 to 10	45.7	21.3	28.4	91.4	8.39	8.39	0.057	0.0574	27.5	58.6	10.3	1.8	1.7	UnCh	
C=C(C)Cn1c(SCC(=O)c2ccc(-c3ccccc3)cc2)nc2sc3c(c2c1=O)CCCC3 [Formula 1KXQ]	UnCh		28.7		> 20	41.1	12	80.9	0.029				44	12.2	46.8	> 100	> 100	> 100	UnCh	UnCh
